Experimental data published in patent publication US11931328B2, “Stabilized formulations of 4-amino-3-substituted butanoic acid derivatives” (AMNEAL PHARMACEUTICALS LLC, priority 2019, dated 2024).
“Also recorded” adds a separate entry of the source. Like-named read-outs stand apart in the source and are kept apart here.

Experiment: Accelerated stability studies of API/stabilizer preparations (lactam impurity A by HPLC)
Type: physicochemical

| Compound | effect of EUDRAGIT E on formation of lactam impurity A (with EUDRAGIT E PO 1, 5, 10% (m/m), stored at 60° C. in closed glass vials, HPLC) | effect of EUDRAGIT E on formation of lactam impurity A |
| --- | --- | --- |
| NCC(CC(=O)O)c1ccc(Cl)cc1 (stereo not drawn) [baclofen, 4-amino-3-(4-chlorophenyl)butanoic acid] | stabilized; also recorded: stabilization effect | – |
| CC(C)C[C@H](CN)CC(=O)O [pregabalin] | – | destabilization effect |
| NCC1(CC(=O)O)CCCCC1 [gabapentin] | – | destabilization effect |
